According to ChEMBL document CHEMBL1142764, “Anti-HIV properties of cationic fullerene derivatives” (Bioorg Med Chem Lett, 2005):

Key:
CCRF-CEM = assay: Cytostatic activity against CEM cell culture; format: functional; details: Homo sapiens
[1] = system: Human immunodeficiency virus 2; assay: Effective concentration against HIV-2; format: functional, organism-based
[2] = system: Human immunodeficiency virus 1; assay: Effective concentration against HIV-1; format: functional, organism-based

Compound	CC50 (CCRF-CEM)	EC50 [1]	EC50 [2]
CC12C[N+](C)(C)CC34C5c6cc7c8c9c6-c6c5c5c%10c%11c6C6c%12c%13c%14c%15c%16c%17c%18c(c%19c%20c%21c%22c%23c%24c(c%10c%10c(c%12%11)c%14c%11c%10c%24c%22c%10c%20c%18c%15c%10%11)C5C35C=%23CC%215C%1914)C(C%17=C8C1(C[N+](C)(C)CC%16%131)C96)C72 (configuration not stated)	12.5 µM	2.5 µM	1.08 µM
CC1C2c3cc4/c5c6c7c8c9c%10c6c4c4c3C3=C6c%11c%12c%13c%14c%15c(c9c9c%16c8c(c8/c(c%17c%18c%19c(c(c%11c%11c%19c%19c%17c8c%16c(c%149)c%19c%13%11)C62)C1C%181C[N+](C)(C)C1)=C\C/C=5)C7)C%10C4C31C[N+](C)(C)CC%12%151 (configuration not stated)	2.93 µM	0.2 µM	0.21 µM
C[N+]1(C)CC23C4=C5c6c7c8c9c%10c%11c%12c%13c%14c%15c%16c%17c%18c%19c%20c%21c%22c%23c%24c(c6C6%25C[N+](C)(C)CC%236C%21C6C%21=C%20C%18C%18C%20=C%21C(C4c4c%20c(c-%13c(c42)C%12C9C73C1)C%18C%14%17)C6C5%25)c8c1c%10c(c%11%15)c2c%16c%19c%22c2c%241 (configuration not stated)	> 125 µM	> 25 µM	> 25 µM
CC1C2c3cc4c5c6c3C3=C7c8c9c%10c%11c%12c%13c%14c%15c(c-5c5c%16c%15c%15c%17c%18c%19c%20c%21c%22c(c(c8c8c%22c%22c%20c%18c%18c%15c%14c%11c%18c%22c%108)C72)C1C%211CC=%19C1(C%16%17)C1C[N+](C)(C)CC451)C%13C6C31C[N+](C)(C)CC9%121 (configuration not stated)	9.04 µM	0.7 µM	0.35 µM
